Earlier results, collected in patent publication US20180228757A1, “EDIBLE PARTICLES COMPRISING A POLYSACCHARIDE AND A LIPID” (PERORA GMBH, priority 2015, published 2018).

Details: infusion into the duodenum by means of a feeding tube

SMILES | satiety signalling
CCCCCCCCCCCC(=O)O [lauric acid] | strong satiety signalling
CCCCCCCC/C=C\CCCCCCCC(=O)O [oleic acid] | strong satiety signalling
